Laboratory results as given in patent publication US4010258A, “Microbial amylase inhibitor and preparation thereof with the use of streptomyces diasticus var. amylostaticus” (Ajinomoto Co., Inc., priority 1974, dated 1977).

Columns and labels:
amylase = conditions: prior art statement; cited from earlier work
trypsin = assay: Action of various proteases on Amylostatin-A; assay type: in vitro ADME
chymotrypsin = chymotrypsin (Bos taurus, UniProt P00766); assay: Action of various proteases on Amylostatin-A; assay type: in vitro ADME
papain = biological target: T1, papain (Carica papaya, UniProt P00784); assay: Action of various proteases on Amylostatin-A; assay type: in vitro ADME
T1 sequence (P00784 134-345): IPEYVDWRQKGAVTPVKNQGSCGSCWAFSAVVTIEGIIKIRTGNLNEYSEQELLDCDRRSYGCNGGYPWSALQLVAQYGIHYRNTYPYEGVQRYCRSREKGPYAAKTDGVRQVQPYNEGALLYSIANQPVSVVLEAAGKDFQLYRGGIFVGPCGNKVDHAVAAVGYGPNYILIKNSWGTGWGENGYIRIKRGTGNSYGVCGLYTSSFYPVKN

pepsin = pepsin (Sus scrofa, UniProt P00791); assay: Action of various proteases on Amylostatin-A; assay type: in vitro ADME
[1] = Stability in buffer solution (pH and heat); assay type: physicochemical
Solubility = assay type: physicochemical
[2] = system: digestion and absorption of starch; assay: Biological test on digestibility of starch; assay type: in vivo, male rats of Wistar strain; conditions: rats, 4 hours
Protocol: An experiment concerning the inhibitory effect of Amylostatin-A on the digestion and absorption of starch in vivo was carried out using sound male rats of Wistar strain weighing from 250 to 300g. After they had been made to fast, receiving only water for 48 hours, 60 rats were selected and divided into 10 groups of each 5 or 10 as shown in Table 4.
Rats in control groups were given either 2.5 ml of an isotonic sodium chloride solution in which 300 mg of soluble starch (Wako Junyaku Co., Inc.) was dissolved or 2.5 ml of an isotonic sodium chloride solution in which 300 mg of corn starch (Japanese Pharmacopia) was suspended. The rats were subjected to a laparotomy, the solution was injected into the stomach and the incision site was sutured. Rats in test groups were given the same amount and kinds of solutions as given to the rats in control groups except that varying amounts of crude Amylostatin-A obtained according to the methods of Example 1 were added as shown in Table 4. The test solutions were administered in the same manner as the control solutions.
After the lapse of definite periods of time, all rats were again laparotomized at the site of the original incision and all contents of the stomach and small intestines were removed by washing with an isotonic sodium chloride solution. To these washings containing residual starch, 25 ml of 1N hydrochloric acid was added. The mixture was heated to carry the hydrolytic reaction to completion and the quantity of reducing sugar formed was determined by Somogyi's method.

[3] = system: bacterial α-amylase (crystalline); assay: Assay of amylase inhibitory activity (units); assay type: biochemical; conditions: purified powdery preparation, Example 1
Protocol: The reaction mixture consisting of 4 ml of a 1.5% soluble starch solution in 0.1M acetate buffer solution at pH 5.5, 0.5 ml of distilled water and 0.5 ml of the amylase solution to be assayed (amylase or bacterial α-amylase (crystalline) ) is incubated at 37° C. for 10 minutes and the reaction is terminated by adding a mixture of 5:1 by volume of 0.5N acetic acid and 0.5N hydrochloric acid. From this solution, 0.2 ml is withdrawn and added to 5 ml of N/3000 iodine solution and the absorbency is measured at 660 nm. The amylase activity per one ml of the enzyme solution expressed in units is calculated as follows: [formula] in which D is the optical density of the enzyme solution and Do is the optical density of the control.
The reaction mixture consisting of 0.5 ml of 2 × 10^^-4 % of bacterial α-amylase (crystalline) and 0.5 ml of the solution of Amylostatin-A is incubated at 37° C. for 10 minutes. Any residual amylase activity is determined according to the method of assay of amylase activity described above. One unit of amylase inhibitory activity is defined as the amount of inhibitory activity necessary to inactivate one unit of amylase.

Chain of pepsin (P00791 60-385): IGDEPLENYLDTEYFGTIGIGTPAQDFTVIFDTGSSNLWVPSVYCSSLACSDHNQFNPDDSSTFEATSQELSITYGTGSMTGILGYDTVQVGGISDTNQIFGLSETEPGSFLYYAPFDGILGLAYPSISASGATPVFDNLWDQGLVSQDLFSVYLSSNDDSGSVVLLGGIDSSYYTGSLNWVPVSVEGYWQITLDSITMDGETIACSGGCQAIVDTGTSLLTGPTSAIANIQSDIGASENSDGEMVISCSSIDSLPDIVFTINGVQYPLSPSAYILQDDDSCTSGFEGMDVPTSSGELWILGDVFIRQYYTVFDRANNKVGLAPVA

OC[C@H]1NC(O)[C@H](O)[C@@H](O)[C@@H]1O (stereo partly shown) [Nojirimycin]
amylase inhibitory activities (amylase): extremely low

Amylostatin-A
inactivation of the inhibitory activity on amylase by protease (trypsin): unable to inactivate
inactivation of the inhibitory activity on amylase by protease (chymotrypsin): unable to inactivate
inactivation of the inhibitory activity on amylase by protease (papain): unable to inactivate
inactivation of the inhibitory activity on amylase by protease (pepsin): unable to inactivate
Stability ([1]; buffer solution, pH 1 to 12, 37° C. for 12 hours): substantial stability
Stability ([1]; heated at 100° C. for 30 minutes, pH 1 to 12): substantial stability
Solubility (Solubility; acetone): substantially insoluble
Solubility (Solubility; chloroform): substantially insoluble
Solubility (Solubility; ethanol): substantially insoluble
Solubility (Solubility; methanol): substantially insoluble
Solubility (Solubility; pyridine): soluble
Solubility (Solubility; water): soluble
residual % of starch (average) ([2]; 300 mg cornstarch into the stomach, 2.5 mg crude Amylostatin-A added): 82.5%
residual % of starch (average) ([2]; 300 mg cornstarch into the stomach, 5 mg crude Amylostatin-A added): 93.6%
residual % of starch (average) ([2]; 300 mg cornstarch into the stomach, 10 mg crude Amylostatin-A added): 92.5%
residual % of starch (average) ([2]; 300 mg soluble starch (dissolved on heating) into the stomach, 5 mg crude Amylostatin-A added): 63.8%
residual % of starch (average) ([2]; 300 mg soluble starch (dissolved on heating) into the stomach, 10 mg crude Amylostatin-A added): 65.7%
amylase inhibitory activity [3]: 3.5 × 10^4 units per mg
